In general, IC50 refers to the concentration at which inhibition is half-maximal. The low end stands for greater potency, the high end for weaker potency.

15 compounds from US20240246967A1, “AXL COMPOUNDS” (ARCUS BIOSCIENCES, INC., priority 2021, published 2024) can be followed below.

The target of experiment [1] is T1, Axl (Homo sapiens, UniProt P30530).
T1 sequence (P30530 26-894): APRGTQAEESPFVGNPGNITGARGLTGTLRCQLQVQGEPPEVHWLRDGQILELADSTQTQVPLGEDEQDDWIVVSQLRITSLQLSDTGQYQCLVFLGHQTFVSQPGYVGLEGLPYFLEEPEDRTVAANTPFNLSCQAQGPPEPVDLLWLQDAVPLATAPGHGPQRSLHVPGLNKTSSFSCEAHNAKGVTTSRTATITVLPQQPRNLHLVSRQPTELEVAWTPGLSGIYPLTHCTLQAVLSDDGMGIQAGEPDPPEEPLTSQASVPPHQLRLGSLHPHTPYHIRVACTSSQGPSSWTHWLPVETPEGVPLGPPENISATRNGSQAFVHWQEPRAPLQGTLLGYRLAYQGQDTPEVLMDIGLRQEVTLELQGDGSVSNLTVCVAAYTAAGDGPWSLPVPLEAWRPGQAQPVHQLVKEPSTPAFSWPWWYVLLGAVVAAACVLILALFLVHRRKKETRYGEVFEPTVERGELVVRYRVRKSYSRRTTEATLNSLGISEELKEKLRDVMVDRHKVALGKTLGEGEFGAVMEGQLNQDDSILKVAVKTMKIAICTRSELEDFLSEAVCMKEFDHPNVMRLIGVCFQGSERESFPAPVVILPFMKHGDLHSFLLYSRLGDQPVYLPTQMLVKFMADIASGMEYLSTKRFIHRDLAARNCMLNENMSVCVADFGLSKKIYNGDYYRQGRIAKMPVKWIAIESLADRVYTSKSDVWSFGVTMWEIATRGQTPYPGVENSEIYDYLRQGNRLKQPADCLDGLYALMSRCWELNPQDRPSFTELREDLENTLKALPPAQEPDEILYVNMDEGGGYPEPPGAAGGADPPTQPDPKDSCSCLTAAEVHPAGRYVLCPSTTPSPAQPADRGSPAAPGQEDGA
Kind of experiment: Axl NanoBRET intracellular kinase assay (intracellular binding, Cell Binding). The arrangement: host or cells: HEK-293. The following applies: HEK-293 cells transfected with Axl-NanoLuc fusion vector; 0.35 μM K-5 NanoBRET tracer. The procedure:
Axl NanoBRET™ intracellular kinase assay (Promega, N2540) was performed according to manufacturer's recommendation. In brief, HEK-293 cells are transiently transfected with Axl-NanoLuc fusion vector (Promega, NV1071), utilizing Fugene HD transfection reagent (Promega, E2311) a day before experiment following manufacturer's recommendation.
The day of the assay, the cells were collected and resuspended in Opti-MEM media (ThermoFisher, 31985070) at 2e5 cells/mL concentration. Testing compounds were serial diluted and dispensed into a white 384 well polystyrene plate at 200 nL in 100% DMSO. 40 μL of resuspended cells is then added per well for a final condition of 8K cells/well with 0.5% DMSO. After one-hour compound pre-incubation at 37° C. and 5% CO2, cells were further incubated with 0.35 μM K-5 NanoBRET tracer for two-hours at 37° C. and 5% CO2. […] of 3× substrate plus Inhibitor solution was prepared according to kits manual and added to the cells followed by a 30 second pulse centrifugation spin. The plate was then immediately read utilizing an Envision (Perkin Elmer) plate reader. The BRET signal is measured by taking the ratio of the emissions reading at 610 nm and 450 nm. Compound binding is based on the decrease BRET signal caused by the displacement of the K-5 tracer. […] IC50 value of compounds was determined by 4-parameter non-linear regression fitting of percent activity in GraphPad Prism software.

The target in experiment [2] is T1, Axl. The experiment can be described thus: HTRF KinEASE-TK biochemical potency assay, AXL. The arrangement: purchased Invitrogen. The following applies: 5 nM AXL, 700 μM ATP, 800 nM TK Substrate-biotin. The method, then: Purified recombinant human AXL, TYRO3 and MER proteins were purchased from Invitrogen™. 10 nM AXL, 2 nM TYRO3 or MER were incubated with varying concentrations of compounds in 50 mM HEPES, pH 7.4, 10 mM MgCl2, 0.01% BSA, 1 mM DTT and 2% DMSO in a total volume of 20 μl in a 384-well microplate (Corning™ #3640) at RT for 1 h. The AXL, TYRO3 and MER enzymatic reaction was initiated by transferring 10 μl of enzyme and compound mixture into 10 μl of 1.6 μM TK Substrate-biotin (HTRF® KinEASE-TK kit, Cisbio) and 1400 μM ATP pre-incubated in 50 mM HEPES, pH 7.4, 10 mM MgCl2, 0.01% BSA, 1 mM DTT in a 384-well microplate (Corning™ #3640) at RT, giving the final reaction conditions: 5 nM AXL, 1 nM TYRO3 or MER, 800 nM TK Substrate-biotin and 700 μM ATP in 50 mM HEPES, pH 7.4, 10 mM MgCl2, 0.01% BSA, 1 mM DTT and 1% DMSO with varying concentrations of compounds. Following 2 h incubation at RT, the AXL, TYRO3 and MER enzymatic reaction was stopped by transfer of 10 μl of reaction into 10 μl of detection mix (400 nM Streptavidin-XL665, 200-fold dilution TK Antibody-Cryptate and detection buffer, HTRF® KinEASE-TK kit, Cisbio) in a white 384-well microplate (Perkin Elmer, OptiPlate 384). After 1 h incubation at RT, the plate was put into a plate reader (Evision) to read at 665/620 nm (acceptor/donor) for HTRF. The value of the DMSO blank (MIN inhibition=100% activity) was used as a negative control. The positive control was established by adding 5 μl of enzyme and DMSO mixture into 10 μl of detection mix followed by addition of 5 μl of TK Substrate-biotin and ATP mixture (MAX inhibition=0% activity). To calculate the percent activity, Equation 1 was used. Ratio 665/620 is the value at a given compound concentration: […]
Background: Time-resolved FRET reads energy transfer from a long-lived donor to a nearby acceptor.

Take `CC(C)(O)c1ccc(-c2n[nH]c3ncc(-c4ccc5c(c4)CCN(C4CCCC4)CC5)c(F)c23)cc1Cl` [Example 15, 2-{2-Chloro-4-[5-(3-cyclopentyl-2,3,4,5-tetrahydro-1H-3-benzazepin-7-yl)-4-fluoro-1H-pyrazolo[3,4-b]pyridin-3-yl]phenyl}propan-2-ol]: in experiment [1], the IC50 was over 1000 nM.
On the same count and under the same terms, the result for `CC(O)(c1ccc(-c2n[nH]c3ncc(-c4ccc5c(c4)CCN(C4CCCC4)CC5)cc23)cc1)C(F)(F)F` (stereo not shown) [Example 13, 2-{4-[5-(3-Cyclopentyl-2,3,4,5-tetrahydro-1H-3-benzazepin-7-yl)-1H-pyrazolo[3,4-b]pyridin-3-yl]phenyl}-1,1,1-trifluoropropan-2-ol] reads 100 to 1000 nM; that for `C[C@@H]1CCCN1C1(C)CCc2ccc(-c3cnc4[nH]cc(C5CCN(S(C)(=O)=O)CC5)c4c3)cc2CC1` (stereo partly drawn) [Example 116, 1-Methanesulfonyl-4-(5-{7-methyl-7-[(2R)-2-methylpyrrolidin-1-yl]-6,7,8,9-tetrahydro-5H-benzo[7]annulen-2-yl}-1H-pyrrolo[2,3-b]pyridin-3-yl)piperidine], under 100 nM.
In the case of `CC(C)(O)c1ccc(-c2n[nH]c3ncc(-c4ccc5c(c4)CC[C@@H](N4CCCC4)CC5)cc23)c(Cl)c1` [Example 51, 2-(3-Chloro-4-{5-[(7S)-7-(pyrrolidin-1-yl)-6,7,8,9-tetrahydro-5H-benzo[7]annulen-2-yl]-1H-pyrazolo[3,4-b]pyridin-3-yl}phenyl)propan-2-ol], the IC50 in experiment [2] and in experiment [1] was 100 to 1000 nM in each case.
As to `CCS(=O)(=O)c1ccc(-c2n[nH]c3ncc(-c4ccc5c(c4)CCC(C)(N4CCC[C@H]4C)CC5)cc23)cc1` (stereo partly drawn) [Example 44, 3-(4-(Ethylsulfonyl)phenyl)-5-(7-methyl-7-((R)-2-methylpyrrolidin-1-yl)-6,7,8,9-tetrahydro-5H-benzo[7]annulen-2-yl)-1H-pyrazolo[3,4-b]pyridine], the IC50 in experiment [2] and in experiment [1] was under 100 nM throughout.
`CC(C)S(=O)(=O)c1ccc(-c2n[nH]c3ncc(-c4ccc5c(c4)CCC(C)(N4CCC[C@H]4C)CC5)cc23)cc1` (stereo partly drawn) [Example 43, 3-(4-(Isopropylsulfonyl)phenyl)-5-(7-methyl-7-((R)-2-methylpyrrolidin-1-yl)-6,7,8,9-tetrahydro-5H-benzo[7]annulen-2-yl)-1H-pyrazolo[3,4-b]pyridine]: the IC50 in experiment [2] and in experiment [1] was under 100 nM each time.
As for `CS(=O)(=O)c1ccc(-c2n[nH]c3nc(N)c(-c4ccc5c(c4)CCN(C4CCCC4)CC5)cc23)cc1` [Example 19, 5-(3-Cyclopentyl-2,3,4,5-tetrahydro-1H-3-benzazepin-7-yl)-3-(4-methanesulfonylphenyl)-1H-pyrazolo[3,4-b]pyridin-6-amine], the values for the IC50 in experiment [2] and in experiment [1] were 100 to 1000 nM and over 1000 nM, respectively.
`CC(C)(O)c1ccc(-c2n[nH]c3ncc(-c4ccc5c(c4)CCN(C4CCCC4)CC5)cc23)cc1OC(F)(F)F` [Example 14, 2-{4-[5-(3-Cyclopentyl-2,3,4,5-tetrahydro-1H-3-benzazepin-7-yl)-1H-pyrazolo[3,4-b]pyridin-3-yl]-2-(trifluoromethoxy)phenyl}propan-2-ol]: the IC50 in experiment [1] is over 1000 nM.
The compound `CNC(=O)c1ccc(-c2n[nH]c3ncc(-c4ccc5c(c4)CCC(C)(N4CCC[C@H]4C)CC5)cc23)cc1` (stereo partly drawn) [Example 71, N-Methyl-4-(5-{7-methyl-7-[(2R)-2-methylpyrrolidin-1-yl]-6,7,8,9-tetrahydro-5H-benzo[7]annulen-2-yl}-1H-pyrazolo[3,4-b]pyridin-3-yl)benzamide] yielded an IC50 in experiment [1] of under 100 nM.
As to `CC(C)(O)c1ccc(-c2c[nH]c3ncc(-c4ccc5c(c4)CCC(N4CCCC4)CC5)cc23)cc1Cl` (stereo not shown) [Example 106, 2-(2-Chloro-4-{5-[7-(pyrrolidin-1-yl)-6,7,8,9-tetrahydro-5H-benzo[7]annulen-2-yl]-1H-pyrrolo[2,3-b]pyridin-3-yl}phenyl)propan-2-ol], the values for the IC50 in experiment [2] and in experiment [1] were under 100 nM and 100 to 1000 nM, respectively.
Turning to `CC(C)(O)c1ccc(-c2n[nH]c3ncc(-c4ccc5c(c4)CCN(C4CCCC4)CC5)cc23)cc1` [Example 18, 2-{4-[5-(3-Cyclopentyl-2,3,4,5-tetrahydro-1H-3-benzazepin-7-yl)-1H-pyrazolo[3,4-b]pyridin-3-yl]phenyl}propan-2-ol], the IC50 in experiment [1] fell in the range of 100 to 1000 nM.
The same measure, in the same setting: the figure for `CC(C)(O)c1ccc(-c2n[nH]c3ncc(-c4ccc5c(c4)CN(C4CCCC4)CC5)cc23)cc1Cl` [Example 29, 2-(2-Chloro-4-(5-(2-cyclopentyl-1,2,3,4-tetrahydroisoquinolin-7-yl)-1H-pyrazolo[3,4-b]pyridin-3-yl)phenyl)propan-2-ol] is over 1000 nM.
On to `CC(C)(C#N)c1ccc(-c2n[nH]c3ncc(-c4ccc5c(c4)CCN(C4CCCC4)CC5)cc23)cc1` [Example 33, 2-(4-(5-(3-Cyclopentyl-2,3,4,5-tetrahydro-1H-benzo[d]azepin-7-yl)-1H-pyrazolo[3,4-b]pyridin-3-yl)phenyl)-2-methylpropanenitrile], for which the values for the IC50 in experiment [2] and in experiment [1] were 100 to 1000 nM and over 1000 nM, respectively.
On the same counts, the results for `Cc1cc(C(N)=O)ccc1-c1n[nH]c2ncc(-c3ccc4c(c3)CC[C@@H](N3CCCC3)CC4)cc12` [Example 86, (S)-3-Methyl-4-(5-(7-(pyrrolidin-1-yl)-6,7,8,9-tetrahydro-5H-benzo[7]annulen-2-yl)-1H-pyrazolo[3,4-b]pyridin-3-yl)benzamide] are under 100 nM and 100 to 1000 nM.
The compound `CC(C)(O)c1ccc(-c2n[nH]c3ncc(-c4ccc5c(c4)CCN(C4CCCC4)C5)cc23)cc1Cl` [Example 28, 2-(2-Chloro-4-(5-(2-cyclopentyl-1,2,3,4-tetrahydroisoquinolin-6-yl)-1H-pyrazolo[3,4-b]pyridin-3-yl)phenyl)propan-2-ol] displayed a half-inhibitory concentration (IC50) in experiment [1] of over 1000 nM.
